Where a name gives a salt, the structure may show the parent alone.

Consider 27 compounds from patent publication US7423054B2, “Therapeutic pyrazolo[3,4-b]pyridines and indazoles” (Warner Lambert Company LLC, priority 2004, dated 2008).

Test [1] concerns the target T1, human serotonin transporter (hSERT) (Homo sapiens, UniProt P31645).
T1 construct: expressed in transfected cells; host or cells: HEK-293 cells (membrane preparation)
Briefly: hSERT receptor binding ([125I]-RTI-55 displacement, membranes of transfected HEK-293 cells). The following applies: HEK-293 membranes, Ki from IC50 by Cheng-Prusoff, read-out: SERT Ki. The procedure, abridged:
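Membranes from HEK-293 cells expressing human SERT were incubated 90 min at room temperature in Krebs-HEPES (pH 7.4) with 50 pM [125I]-RTI-55 and compound (10^-12 to 10^-5 M), in duplicate. Nonspecific binding was defined with 10 μM citalopram. Ki from IC50 by Cheng-Prusoff.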

For test [2], the target named is T2, human norepinephrine transporter (hNET) (Homo sapiens, UniProt P23975).
T2 construct: expressed in transfected cells; host or cells: HEK-293 cells (membrane preparation)
Briefly: hNET receptor binding ([125I]-RTI-55 displacement, membranes of transfected HEK-293 cells). The following applies: HEK-293 membranes, Ki from IC50 by Cheng-Prusoff, read-out: NET Ki. The procedure, abridged: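 Membranes from HEK-293 cells expressing human NET were incubated 90 min at room temperature with 50 pM [125I]-RTI-55 and compound (10^−5 to 10^−12 M) in Krebs-HEPES buffer, pH 7.4. Bound radioligand was counted after filtration, with nonspecific binding defined by 10 μM desipramine. IC50 was converted to Ki by Cheng-Prusoff.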

T2 sequence (P23975 whole entry): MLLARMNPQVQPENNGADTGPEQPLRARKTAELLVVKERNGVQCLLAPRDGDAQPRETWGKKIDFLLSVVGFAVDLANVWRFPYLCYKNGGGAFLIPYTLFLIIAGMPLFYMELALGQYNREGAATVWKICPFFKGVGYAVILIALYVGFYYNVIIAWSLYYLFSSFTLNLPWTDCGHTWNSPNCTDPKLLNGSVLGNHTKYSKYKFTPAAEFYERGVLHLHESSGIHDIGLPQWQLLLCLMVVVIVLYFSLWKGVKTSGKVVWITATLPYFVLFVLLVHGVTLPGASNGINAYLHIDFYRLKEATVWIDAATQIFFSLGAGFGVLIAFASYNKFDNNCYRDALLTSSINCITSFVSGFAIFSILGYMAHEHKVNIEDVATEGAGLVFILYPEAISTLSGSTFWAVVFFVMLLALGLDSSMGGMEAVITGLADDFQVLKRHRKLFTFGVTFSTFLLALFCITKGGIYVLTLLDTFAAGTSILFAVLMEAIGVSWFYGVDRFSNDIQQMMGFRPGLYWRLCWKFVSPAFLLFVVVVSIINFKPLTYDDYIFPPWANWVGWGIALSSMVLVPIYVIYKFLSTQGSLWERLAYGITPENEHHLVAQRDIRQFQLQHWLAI
T1 sequence (P31645 whole entry): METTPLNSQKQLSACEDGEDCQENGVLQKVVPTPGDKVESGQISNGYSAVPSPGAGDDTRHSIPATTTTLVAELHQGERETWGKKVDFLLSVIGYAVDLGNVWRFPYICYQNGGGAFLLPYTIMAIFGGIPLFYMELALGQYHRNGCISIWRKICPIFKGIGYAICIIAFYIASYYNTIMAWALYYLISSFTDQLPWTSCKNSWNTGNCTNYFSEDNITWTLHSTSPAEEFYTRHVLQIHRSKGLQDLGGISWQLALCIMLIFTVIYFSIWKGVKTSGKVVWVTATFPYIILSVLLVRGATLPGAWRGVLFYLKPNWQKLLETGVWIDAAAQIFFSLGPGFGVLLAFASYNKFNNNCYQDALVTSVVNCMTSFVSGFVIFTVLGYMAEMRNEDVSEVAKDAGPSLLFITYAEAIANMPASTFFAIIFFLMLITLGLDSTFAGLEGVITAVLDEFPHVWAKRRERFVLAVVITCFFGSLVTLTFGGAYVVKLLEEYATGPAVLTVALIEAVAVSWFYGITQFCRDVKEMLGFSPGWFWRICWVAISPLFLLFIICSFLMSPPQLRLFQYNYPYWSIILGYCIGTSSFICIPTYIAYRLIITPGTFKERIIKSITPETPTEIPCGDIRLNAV

In the case of `Fc1ccc2c(c1)c(OC[C@@H]1CCCNC1)nn2-c1ccccc1F` [Example 55, (R)-5-Fluoro-1-(2-fluoro-phenyl)-3-(piperidin-3-ylmethoxy)-1H-indazole maleate], the values for the Ki in test [1] and in test [2] were 126 nM and 71.2 nM, respectively.

With `Clc1ccc(-n2nc(OCC3CCCNC3)c3ccccc32)cc1` (racemic) [Example 68, (±)-1-(4-Chloro-phenyl)-3-(piperidin-3-ylmethoxy)-1H-indazole hydrochloride], the inhibition constant (Ki) in test [1] is 359 nM; in test [2], 219 nM.

For the compound `Fc1ccccc1-n1nc(OC2CCNCC2)c2cccc(C(F)(F)F)c21` [Example 65, 1-(2-fluorophenyl)-3-(piperidin-4-yloxy)-7-(trifluoromethyl)-1H-indazole hydrochloride], the Ki worked out at 81.2 nM in test [1] and 4330 nM in test [2].

Turning to `Fc1ccc2c(c1)c(OCC1CCCNC1)nn2-c1ccc(F)c(F)c1` (racemic) [Example 96, (±)-1-(3,4-Difluoro-phenyl)-5-fluoro-3-(piperidin-3-ylmethoxy)-1H-indazole hydrochloride], the inhibition constant (Ki) turned out to be 172 nM in test [1] and 49.5 nM in test [2].

As for `Fc1ccc(F)c(-n2nc(OC[C@H]3CCCNC3)c3c(F)cccc32)c1` [Example 91, (S)-1-(2,5-Difluoro-phenyl)-4-fluoro-3-(piperidin-3-ylmethoxy)-1H-indazole hydrochloride], the Ki in test [1] came out at 610 nM; in test [2] it was 7.88 nM.

`Fc1ccccc1-n1nc(OCC2CCCNC2)c2cc(Cl)ccc21` (stereo not drawn) [Example 73, 5-Chloro-1-(2-fluoro-phenyl)-3-(piperidin-3-ylmethoxy)-1H-indazole hydrochloride]: the Ki in test [1] was 304 nM; in test [2] it was 29.3 nM.

In the case of `Fc1ccccc1-n1nc(OC[C@@H]2CCNC2)c2ccccc21` [Example 11, (R)-1-(2-Fluoro-phenyl)-3-(pyrrolidin-3-ylmethoxy)-1H-indazole hydrochloride], the inhibition constant Ki amounted to 279 nM in test [1] and 14 nM in test [2].

As for `Fc1cccc(-n2nc(OC[C@H]3CCCNC3)c3c(F)cccc32)c1` [Example 82, (S)-4-Fluoro-1-(3-fluoro-phenyl)-3-(piperidin-3-ylmethoxy)-1H-indazole hydrochloride], the Ki was 635 nM in test [1] and 23.2 nM in test [2].

In the case of `Cc1ccc2c(OCC3CCCNC3)nn(-c3ccccc3F)c2c1` (stereo not drawn) [Example 74, 1-(2-Fluoro-phenyl)-6-methyl-3-(piperidin-3-ylmethoxy)-1H-indazole hydrochloride], the Ki in test [1] amounted to 792 nM; in test [2], 60.5 nM.

Regarding `CC1(COc2nn(-c3ccccc3F)c3ccc(F)cc23)CCCNC1` (stereo not drawn) [Example 52], the Ki in test [1] was determined as 45.4 nM; in test [2], 35.7 nM.

Take `c1ccc(-n2nc(OC[C@H]3CCCNC3)c3cccnc32)cc1` [Example 104, (S)-(−)-1-Phenyl-3-(piperidin-3-ylmethoxy)-1H-pyrazolo[3,4-b]pyridine hydrochloride]: the Ki in test [1] came out at 1580 nM; in test [2] it was 89 nM.

As for `Fc1cccc(-n2nc(OC3CCNCC3)c3cc(F)ccc32)c1` [Example 77, 5-Fluoro-1-(3-fluoro-phenyl)-3-(piperidin-4-yloxy)-1H-indazole hydrochloride], the inhibitory constant (Ki) in test [1] amounted to 49.5 nM; in test [2], 24.8 nM.

Take `Fc1ccc(-n2nc(OC3CCNCC3)c3cc(F)ccc32)cc1` [Example 79, 5-Fluoro-1-(4-fluoro-phenyl)-3-(piperidin-4-yloxy)-1H-indazole hydrochloride]: the Ki in test [1] stood at 23.7 nM; in test [2], 32.8 nM.

For `Clc1cc(Cl)cc(-n2nc(OC3CCNCC3)c3ccccc32)c1` [Example 29, 1-(3,5-Dichloro-phenyl)-3-(piperidin-4-yloxy)-1H-indazole hydrochloride], the Ki in test [1] came out at 342 nM; in test [2], 4050 nM.

Regarding `Fc1ccccc1-n1nc(O[C@@H]2CCCN2)c2ccccc21` [Example 13, (R)-(+)-1-(2-Fluorophenyl)-3-(pyrrolidin-2-yloxy)-1H-indazole maleate], the Ki came out at 5290 nM in test [1] and 131 nM in test [2].

Consider “(S)-(−)-5-Fluoro-1-(2-fluorophenyl)-3-(piperidin-3-ylmethoxy)-1H-indazole hydrochloride [Example 47]”, for which the inhibition constant (Ki) in test [1] was 47 nM; in test [2], 13 nM.

With `Fc1cccc(F)c1-n1nc(OC[C@H]2CCCNC2)c2ccccc21` [Example 25, (S)-1-(2,6-Difluoro-phenyl)-3-(piperidin-3-ylmethoxy)-1H-indazole maleate], the inhibitory constant (Ki) in test [1] was found to be 670 nM; in test [2] it was 3.2 nM.

Consider `Fc1ccccc1-n1nc(OC[C@H]2CCCNC2)c2c(F)cccc21` [Example 85, (S)-4-Fluoro-1-(2-fluoro-phenyl)-3-(piperidin-3-ylmethoxy)-1H-indazole hydrochloride], for which the values for the inhibitory constant (Ki) in test [1] and in test [2] were 1010 nM and 12.5 nM, respectively.

`c1ccc(-n2nc(OCC3CCCNC3)c3ccccc32)cc1` (racemic) [Example 16, (±)-1-Phenyl-3-(piperidin-3-ylmethoxy)-1H-indazole hydrochloride]: the inhibition constant Ki in test [1] was found to be 224 nM; in test [2], 21.5 nM.

Turning to `Fc1ccccc1-n1nc(OC[C@H]2CNCCO2)c2ccccc21` [Example 5, (R)-(−)-1-(2-Fluorophenyl)-3-(morpholin-2-ylmethoxy)-1H-indazole hydrochloride], the Ki is 1610 nM in test [1] and 84 nM in test [2].

As for `Fc1cccc(-n2nc(OC3CCNCC3)c3c(F)cccc32)c1` [Example 81, 4-Fluoro-1(3-fluoro-phenyl)-3-(piperidin-4-yloxy)-1H-indazole hydrochloride], the figures for the Ki in test [1] and in test [2] were 449 nM and 49.8 nM, respectively.

`Fc1ccc(F)c(-n2nc(OC3CCNCC3)c3c(F)cccc32)c1` [Example 90, 1-(2,5-Difluoro-phenyl)-4-fluoro-3-(piperidin-4-yloxy)-1H-indazole hydrochloride]: the inhibition constant (Ki) in test [1] came out at 142 nM; in test [2] it was 10.2 nM.

Turning to `Fc1ccc(-n2nc(OC[C@H]3CCNC3)c3ccccc32)cc1F` [Example 35, (S)-1-(3,4-Difluoro-phenyl)-3-(pyrrolidin-3-ylmethoxy)-1H-indazole hydrochloride], the Ki in test [1] turned out to be 82.6 nM; in test [2], 24 nM.

`Fc1ccc(-n2nc(OC[C@H]3CCCNC3)c3c(F)cccc32)c(F)c1` [Example 89, (S)-1-(2,4-Difluoro-phenyl)-4-fluoro-3-(piperidin-3-ylmethoxy)-1H-indazole hydrochloride]: the inhibition constant Ki in test [1] was found to be 403 nM; in test [2], 22.4 nM.

Take `Fc1cc2c(OC3CCNCC3)nn(-c3ccccc3)c2cc1F` [Example 87, 5,6-Difluoro-1-phenyl-3-(piperidin-4-yloxy)-1H-indazole hydrochloride]: the Ki in test [1] stood at 57 nM; in test [2], 197 nM.

With `Fc1ccccc1-n1nc(OC2CCNCC2)c2cc(Cl)ccc21` [Example 102, 5-Chloro-1-(2-fluoro-phenyl)-3-(piperidin-4-yloxy)-1H-indazole hydrochloride], the values for the Ki in test [1] and in test [2] were 129 nM and 71.5 nM, respectively.

In the case of `Fc1ccc2c(c1)c(OC[C@@H]1CNCCO1)nn2-c1c(F)cccc1F` [Example 50, (S)-1-(2,6-Difluoro-phenyl)-5-fluoro-3-(morpholin-2-ylmethoxy)-1H-indazole hydrochloride], the Ki came to 1140 nM in test [1] and 5.2 nM in test [2].
